In patent publication US12503451B2, “2-arylthiazole derivative or salt thereof, preparation method therefor, and pharmaceutical composition comprising same” (HEXAPHARMATEC CO., LTD., priority 2020, dated 2025):

Columns and labels:
[1] = tested on: dimethylnitrosamine (DMN)-induced liver injury male SD rats; assay: Liver function-improving activities by oral administration in the liver injury model (1); format: in vivo, rat; conditions: 25 mg/kg oral once a day with DMN
Experimental: The compounds according to the present invention were orally administered to dimethylnitrosamine (DMN)-induced liver injury male SD rats for 3 weeks, so as to evaluate liver function-improving activities. Specifically, 7-week-old male SD rats (Orient Bio, Korea) were accommodated to the laboratory environment at room temperature for 7 days. General symptoms were observed and then only healthy animals were used for the experiment. […] DMN was dissolved in purified water and then administered intraperitoneally at the dose of 10 mg/kg for 3 consecutive days per week (3 times per week, for 4 weeks). […] The collected blood was injected into a vacutainer tube containing a clot activator and then allowed to stand at room temperature for about 20 minutes so as to coagulate each blood sample. After centrifugation for 10 minutes, the resulting serums were subjected to blood-biochemical tests. The results obtained from the measurements were subject to group comparison, through parametric multiple comparisons or non-parametric multiple comparisons, with SPSS. When P<0.05, it was determined to be statistically significant.

[2] = tested on: dimethylnitrosamine (DMN)-induced liver injury male SD rats; assay: Liver function-improving activities by oral administration in the liver injury model (2); format: in vivo, rat; conditions: for Inhibitory activity against liver fibrosis (in words) / Degenerative hepatocyte numbers / Inflammatory cell numbers / Collagen fiber occupied regions: 25 mg/kg oral 4 weeks; for Inhibitory activity against liver fibrosis (in words): histology; for Degenerative hepatocyte numbers / Inflammatory cell numbers: H&E staining of liver; for Degenerative hepatocyte numbers / Inflammatory cell numbers / Collagen fiber occupied regions: autopsy 24 hours after last administration; for Collagen fiber occupied regions: Masson's trichrome staining of liver
Experimental: Specifically, 7-week-old male SD rats (Orient Bio, Korea) were accommodated to the laboratory environment at room temperature for 7 days. General symptoms were observed and then only healthy animals were used for the experiment. The rats were divided into 5 groups (n=10 for each group), i.e., the normal control group, the group to which only DMN is administered, and the group to which both the compound of the present invention (the compound of Example 23, 26, or 29) and DMN are administered. DMN was dissolved in purified water and then administered intraperitoneally at the dose of 10 mg/kg for 3 consecutive days per week (3 times per week, for 4 weeks). Blood samples were collected after the completion of the fourth-week liver injury inducement and then the serum ALT (Alanine Transaminase) values and the serum AST (Aspartate Transaminase) values were measured so as to confirm the liver injury thereof. […] Blood samples were collected on Day 0 (1 day after the completion of the fourth-week liver injury inducement) and Day 7, 14, 21 and 28 after the administration of the test materials. The collected blood was injected into a vacutainer tube containing a clot activator and then allowed to stand at room temperature for about 20 minutes so as to coagulate each blood sample. After centrifugation for 10 minutes, the resulting serums were subjected to blood-biochemical tests. In addition, at 24 hours after the last administration, an autopsy for hepatectomy and fixation was performed to prepare the tissue specimens thereof. After preparing the slides with the tissue specimens, hematoxylin and eosin (H&E) staining was performed thereon for microscopic observation of damages to liver tissue and inflammatory cell infiltrations in liver tissues. In addition, Masson's trichrome staining was also performed thereon for microscopic observation of collagen fiber depositions in liver tissues. The results obtained from the measurements were subject to group comparison, through parametric multiple comparisons or non-parametric multiple comparisons, with SPSS. When P<0.05, it was determined to be statistically significant. […] Therefore, it can be confirmed that the compounds of the present invention have excellent treating activity against liver fibrosis. […] From the results of FIG. 4, the degrees of damage to liver tissue and inflammatory cell infiltration in liver tissues were measured. And also, from the results of FIG. 4, the degree of collagen fiber deposition in liver tissues was measured.

[3] = tested on: primary mouse cortical neuron cells; assay: Autophagic vesicle formation (CYTO-ID Autophagy Detection Kit); format: cell-based; conditions: 10 μM; 24 hours; untreated control = 1
Experimental: Autophagy lysosomal pathway (ALP) activation by the compounds of the present invention was verified, through measuring the degree of autophagic vesicle formation in neuron cells with the CYTO-ID™ Autophagy Detection Kit (ENZ-51031-K200, Enzo Life Sciences, Inc.). Neuron cells (i.e., primary mouse cortical neuron cells) were isolated from mice using an enzymatic digest method. Specifically, primary mouse cortical neuron cells were isolated by incubating the cortice tissues derived from 16 day embryonic C57BL6 mice, at 37° C. for 30 minutes, with 20 U/ml papain (Worthington Biochemical Corporation, LK003176) and 0.005% DNase I (Worthington Biochemical Corporation, LK003170).
The primary mouse cortical neuron cells (8×10^4 cells) and a medium (a neural cell culture media containing 2 mM L-glutamine (Gibco, 25030-081), N2 supplement (Gibco, 17502-048), B27 supplement (Gibco, 17504-044), and 50 μg/ml penicillin-streptomycin (Gibco, 15140-122)) were added to each well of a 96-well plate and then incubated overnight at 37° C. in a CO2 incubator. The compound of Example 10 (5 μM), the compound of Example 29 (5 μM), and rapamycin (10 μM) were respectively treated to the cells, which were incubated at 37° C. in a CO2 incubator for 24 hours. After each well was washed with 1×Assay Buffer (Enzo Life Science, ENZ-51031-K200), 0.2 μl of Cyto-ID autophagy dye and 0.1 μl of Hoechst 33342 were treated to the cells, which were incubated at 37° C. in a CO2 incubator for 30 minutes. After each well was washed with 1×Assay Buffer (Enzo Life Science, ENZ-51031-K200), the fluorescence values of Cyto-ID (EX: 480 nm, EM: 530 nm) and Hoechst 33342 (EX: 340 nm, EM: 480 nm) were respectively measured with a fluorometer. Three wells were tested for each group. After normalization was carried out through dividing the Cyto-ID fluorescence value of each well by Hoechst 33342 fluorescence value, each relative intensity was calculated by setting that of the untreated control to 1.

N2a cells = assay: Autophagy flux by electron microscope imaging; format: cell-based, mouse; conditions: 10 μM; 24 hours
Experimental: N2a cells (ATCC, CCL-131, mouse neuroblastoma cell line) (3×10^4 cells) and a medium (DMEM (Dulbecco's modified Eagle's medium, Gibco, 11995-065) supplemented with 5% heat-inactivated fetal bovine serum, FBS; Gibco, 16000-044) and 50 μg/ml penicillin-streptomycin (Gibco, 15140-122) were added to each well of a 6-well plate and incubated overnight at 37° C. in a CO2 incubator. The compound of Example 29 (5 μM) and rapamycin (10 μM) were respectively treated and then incubated at 37° C. in a CO2 incubator for 24 hours. Three wells per each group were subject to electron microscope block formation and then pre-fixation, post-fixation, dehydration, substitution, and embedding were carried out according to a flat-embedding method. After ultra-thin sections having a thickness of 70 nm were prepared, heavy metal staining (uranyl acetate, lead citrate) was carried out on the each section, which was photographed through a mosaic imaging technique for imaging the entire cells. In addition, the results obtained by measuring the numbers of the total autophagies (autophagic vesicles), autophagosomes, and autolysosomes per cell according to the treatment groups are shown in Table 3 below. In Table 3 below, the control means the untreated control.

[4] = 0 week (Day 0, before administration)
[5] = 0 week (Day 0, after 4 weeks DMN, before administration)
[6] = 1 week, 25 mg/kg oral once a day after 4 weeks DMN
[7] = 2 weeks, 25 mg/kg oral once a day after 4 weeks DMN
[8] = 3 weeks, 25 mg/kg oral once a day after 4 weeks DMN
[9] = 4 weeks, 25 mg/kg oral once a day after 4 weeks DMN

Row | Compound | ALT values (average value) [1, 4] | AST values (average value) [1, 4] | ALT values (average value) ([1]; 1 week) | AST values (average value) ([1]; 1 week) | ALT values (average value) ([1]; 2 weeks) | AST values (average value) ([1]; 2 weeks) | ALT values (average value) ([1]; 3 weeks) | AST values (average value) ([1]; 3 weeks) | ALT values (average value) [2, 5] | AST values (average value) [2, 5] | Inhibitory activity against liver fibrosis (in words) [2] | ALT values (average value) [2, 6] | AST values (average value) [2, 6] | ALT values (average value) [2, 7] | AST values (average value) [2, 7] | ALT values (average value) [2, 8] | AST values (average value) [2, 8] | ALT values (average value) [2, 9] | AST values (average value) [2, 9] | Degenerative hepatocyte numbers [2] | also measured
1 | Cc1nc(-c2ccc(OCC(C)C)c(C#N)c2)sc1C(=O)NCCN(C(C)C)C(C)C.Cl [Example 2, N-(2-(diisopropylamino)ethyl)-2-(3-cyano-4-isobutoxyphenyl)-4-methylthiazole-5-carboxamide hydrochloride] | 70.76 U/L | 138.50 U/L | 93.68 U/L | 180.72 U/L | 107.06 U/L | 218.90 U/L | 117.02 U/L | 231.54 U/L | – | – | – | – | – | – | – | – | – | – | – | – | –
2 | CCN(CC)CCOc1ccc(-c2nc(C)c(C(=O)NCCN(C(C)C)C(C)C)s2)cc1C#N.Cl.Cl [Example 23, N-(2-(diisopropylamino)ethyl)-2-(4-(2-diethylamino)ethoxy-3-cyanophenyl)-4-methylthiazole-5-carboxamide hydrochloride] | 67.64 U/L | 145.10 U/L | 94.40 U/L | 208.56 U/L | 97.64 U/L | 221.58 U/L | 101.04 U/L | 203.44 U/L | 198.30 U/L | 395.34 U/L | excellent inhibitory activity against liver fibrosis | 104.22 U/L | 169.11 U/L | 65.66 U/L | 140.57 U/L | 60.95 U/L | 128.30 U/L | 52.93 U/L | 125.15 U/L | 319.14 ± 44.66 cells/1000 cells | Inflammatory cell numbers [2]: 101.43 ± 16.53 cells/mm^2; Collagen fiber occupied regions [2]: 12.44 ± 2.03 %/mm^2
3 | CCN(CC)CCOc1ccc(-c2nc(C)c(C(=O)NCCN3CCOCC3)s2)cc1C#N.Cl.Cl [Example 26, N-(2-(4-morpholino)ethyl)-2-(4-(2-diethylamino)ethoxy-3-cyanophenyl)-4-methylthiazole-5-carboxamide hydrochloride] | – | – | – | – | – | – | – | – | 199.51 U/L | 322.72 U/L | excellent inhibitory activity against liver fibrosis | 134.97 U/L | 153.48 U/L | 70.09 U/L | 145.71 U/L | 62.81 U/L | 138.76 U/L | 59.12 U/L | 114.45 U/L | 259.14 ± 42.56 cells/1000 cells | AST value compared with the normal control group (in words) ([2]; 4 weeks after the administration, 25 mg/kg oral): equivalent to that of the normal control group; Inflammatory cell numbers [2]: 90.00 ± 20.67 cells/mm^2; Collagen fiber occupied regions [2]: 10.75 ± 2.17 %/mm^2
4 | CO[C@H]1C[C@@H]2CC[C@@H](C)[C@@](O)(O2)C(=O)C(=O)N2CCCC[C@H]2C(=O)O[C@H]([C@H](C)C[C@@H]2CC[C@@H](O)[C@H](OC)C2)CC(=O)[C@H](C)/C=C(\C)[C@@H](O)[C@@H](OC)C(=O)[C@H](C)C[C@H](C)/C=C/C=C/C=C/1C [Rapamycin, rapamycin, reference compound] | – | – | – | – | – | – | – | – | – | – | – | – | – | – | – | – | – | – | – | – | Cyto-ID fluorescence value (relative intensity) [3]: 1.668; Numbers of the autophagy per cell: Autolysosome (N2a cells): 7.6; Numbers of the autophagy per cell: Autophagic vesicles (N2a cells): 13.3; Numbers of the autophagy per cell: Autophagosome (N2a cells): 4.1
